Here are results for 27 compounds from patent US20230227427A1, “IL-17A MODULATORS” (SANOFI, priority 2010, published 2023).

SMILES strings stand for the structures.

In the first assay the target is T1, human recombinant IL-17A (Homo sapiens, UniProt Q16552).
T1 construct: purchased R&D Systems 7955-IL/CF
T1 sequence (Q16552 24-155): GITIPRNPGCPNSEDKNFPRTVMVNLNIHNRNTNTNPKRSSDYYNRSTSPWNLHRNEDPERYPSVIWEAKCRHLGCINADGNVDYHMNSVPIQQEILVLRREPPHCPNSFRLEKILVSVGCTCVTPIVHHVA
The experiment in a line: IL-17A AlphaLISA assay (block binding of IL-17A to its receptor IL-17RA). The following applies: compounds pre-incubated with the IL-17A for 30 min (indicated by * in Table A); read-out: AlphaLISA pIC50 (converted). Put shortly: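 PBS with 0.05% Tween-20 and 0.1% BSA. IL-17A stock 7.5 nM, IL-17RA/Fc stock 5 nM; compound–cytokine pre-incubation 24 h at RT, or 30 min where marked, then 90 min with receptor. pIC50 from 4-parameter logistic AlphaLISA signal, normalised to DMSO and 6 μM reference inhibitor.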
For orientation: In Alpha technology, singlet oxygen from a donor bead excites a nearby acceptor bead.
Take `CCn1nccc1C(=O)N[C@H](C(=O)Nc1ncc(-c2c(C)noc2C)cc1F)C1CCCCCC1` [Example 163, (S)—N-(1-cycloheptyl-2-((5-(3,5-dimethylisoxazol-4-yl)-3-fluoropyridin-2-yl)amino)-2-oxoethyl)-1-ethyl-1H-pyrazole-5-carboxamide]: the IC50 is 63.1 nM. Take `CCc1nocc1C(=O)N[C@H](C(=O)Nc1ccc(-c2c(C)noc2C)cn1)C1CCCCC1` [Example 114, (S)—N-(1-Cyclohexyl-2-((5-(3,5-dimethylisoxazol-4-yl)pyridin-2-yl)amino)-2-oxoethyl)-3-ethylisoxazole-4-carboxamide]: the IC50 is 158 nM. Consider `Cc1cnn(C)c1-c1ccc(NC(=O)[C@@H](NC(=O)c2ccnn2C)[C@H]2CC[C@H](C)CC2)nc1` [Example 106, N—((S)-2-((5-(1,4-Dimethyl-1H-pyrazol-5-yl)pyridin-2-yl)amino)-1-((1r,4S)-4-methylcyclohexyl)-2-oxoethyl)-1-methyl-1H-pyrazole-5-carboxamide], for which the IC50 is 100 nM. Consider `Cc1nnn(C)c1-c1ccc(NC(=O)[C@@H](NC(=O)c2ccnn2C)C2CCCCCC2)nc1` [Example 148, (S)—N-(1-cycloheptyl-2-((5-(1,4-dimethyl-1H-1,2,3-triazol-5-yl)pyridin-2-yl)amino)-2-oxoethyl)-1-methyl-1H-pyrazole-5-carboxamide], for which the IC50 is 200 nM. In the case of `Cc1cnn(C)c1-c1ccc(NC(=O)[C@@H](NC(=O)c2conc2C)C2CCCCC2)nc1` [Example 181, (S)—N-(1-cyclohexyl-2-((5-(1,4-dimethyl-1H-pyrazol-5-yl)pyridin-2-yl)amino)-2-oxoethyl)-3-methylisoxazole-4-carboxamide], the IC50 is 158 nM. Turning to `CCn1nccc1C(=O)N[C@H](C(=O)Nc1ccc(-c2c(C)cnn2C)cn1)[C@H]1CC[C@H](C)CC1` [Example 126, N—((S)-2-((5-(1,4-Dimethyl-1H-pyrazol-5-yl)pyridin-2-yl)amino)-1-((1r,4S)-4-methylcyclohexyl)-2-oxoethyl)-1-ethyl-1H-pyrazole-5-carboxamide], the IC50 was 50.1 nM. The same measure, in the same setting: next, `Cc1n[nH]c(C)c1-c1ccc(NC(=O)[C@@H](NC(=O)c2ccnn2C)C2CCCCCC2)cn1` [Example 218, (S)—N-(1-cycloheptyl-2-((6-(3,5-dimethyl-1H-pyrazol-4-yl)pyridin-3-yl)amino)-2-oxoethyl)-1-methyl-1H-pyrazole-5-carboxamide]: 158 nM. The same measure, in the same setting: next, `CCn1nncc1C(=O)N[C@H](C(=O)Nc1ccc(-c2c(C)cnn2C)cn1)[C@H]1CC[C@H](C)CC1` [Example 168, N—((S)-2-((5-(1,4-dimethyl-1H-pyrazol-5-yl)pyridin-2-yl)amino)-1-((1r,4S)-4-methylcyclohexyl)-2-oxoethyl)-1-ethyl-1H-1,2,3-triazole-5-carboxamide]: 158 nM; `Cc1noc(C)c1-c1ccc(NC(=O)[C@@H](NC(=O)c2ccnn2C)[C@H]2CC[C@H](C)CC2)cn1` [Example 138, N—((S)-2-((6-(3,5-dimethylisoxazol-4-yl)pyridin-3-yl)amino)-1-((1r,4S)-4-methylcyclohexyl)-2-oxoethyl)-1-methyl-1H-pyrazole-5-carboxamide]: 251 nM; `Cn1nccc1C(=O)N[C@H](C(=O)Nc1ccc(-c2c(C#N)cnn2C)cn1)[C@H]1CC[C@H](C)CC1` [Example 193, N—((S)-2-((5-(4-cyano-1-methyl-1H-pyrazol-5-yl)pyridin-2-yl)amino)-1-((1r,4S)-4-methylcyclohexyl)-2-oxoethyl)-1-methyl-1H-pyrazole-5-carboxamide]: 251 nM. The same measure, in the same setting: with `CCn1nnc(C)c1-c1ccc(NC(=O)[C@@H](NC(=O)c2ccnn2C)C2CCCCCC2)nc1` [Example 157, (S)—N-(1-cycloheptyl-2-((5-(1-ethyl-4-methyl-1H-1,2,3-triazol-5-yl)pyridin-2-yl)amino)-2-oxoethyl)-1-methyl-1H-pyrazole-5-carboxamide] the figure was 251 nM; with `Cc1cnn(C)c1-c1ncc(NC(=O)[C@@H](NC(=O)c2ccnn2C)[C@H]2CC[C@H](C)CC2)cn1` [Example 156, N—((S)-2-((2-(1,4-dimethyl-1H-pyrazol-5-yl)pyrimidin-5-yl)amino)-1-((1r,4S)-4-methylcyclohexyl)-2-oxoethyl)-1-methyl-1H-pyrazole-5-carboxamide], 398 nM; with `CCc1nocc1C(=O)N[C@H](C(=O)Nc1ccc(-c2c(C)n[nH]c2C)nc1)[C@H]1CC[C@H](C)CC1` [Example 213, N—((S)-2-((6-(3,5-dimethyl-1H-pyrazol-4-yl)pyridin-3-yl)amino)-1-((1r,4S)-4-methylcyclohexyl)-2-oxoethyl)-3-ethylisoxazole-4-carboxamide], 100 nM.

On to `CCn1nccc1C(=O)N[C@H](C(=O)Nc1ccc(-c2c(CO)cnn2C)cn1)[C@H]1CC[C@H](C)CC1` [Example 205, 1-ethyl-N—((S)-2-((5-(4-(hydroxymethyl)-1-methyl-1H-pyrazol-5-yl)pyridin-2-yl)amino)-1-((1r,4S)-4-methylcyclohexyl)-2-oxoethyl)-1H-pyrazole-5-carboxamide], for which the IC50 is 251 nM.

For the compound `CCn1nccc1C(=O)N[C@H](C(=O)Nc1ccc(-c2c(C)n[nH]c2C)nc1)C1CCCCCC1` [Example 208, (S)—N-(1-cycloheptyl-2-((6-(3,5-dimethyl-1H-pyrazol-4-yl)pyridin-3-yl)amino)-2-oxoethyl)-1-ethyl-1H-pyrazole-5-carboxamide], the IC50 is 63.1 nM. With `Cc1cncc(C)c1-c1ccc(NC(=O)[C@@H](NC(=O)c2ccnn2C)C2CCC(F)(F)CC2)cc1` (single isomer, unassigned) [Example 98], the IC50 was 251 nM.

The assay is the same for the next values; noted with them: compounds pre-incubated with the IL-17A for 24 h at room temperature; read-out: AlphaLISA pIC50 (converted).
With `COc1cnccc1-c1ccc(NC(=O)[C@@H](NC(=O)c2ccnn2C(F)F)C(c2ccccc2)c2ccccc2)cc1` [Example 46, (S)-1-(difluoromethyl)-N-(1-((4-(3-methoxypyridin-4-yl)phenyl)amino)-1-oxo-3,3-diphenylpropan-2-yl)-1H-pyrazole-5-carboxamide], the IC50 was 100 nM. In the case of `COc1cncc(OC)c1-c1ccc(NC(=O)[C@@H](NC(=O)c2ccnn2C)C(c2ccccc2)c2ccccc2)cc1` [Example 9, (S)—N-(1-((4-(3,5-dimethoxypyridin-4-yl)phenyl)amino)-1-oxo-3,3-diphenylpropan-2-yl)-1-methyl-1H-pyrazole-5-carboxamide], the IC50 is 6.31 nM. In the case of `CCn1nccc1C(=O)N[C@H](C(=O)Nc1ccc(-c2c(C)cncc2C)cn1)[C@H]1CC[C@H](C)CC1` [Example 92, N—((S)-2-((3′,5′-Dimethyl-[3,4′-bipyridin]-6-yl)amino)-1-((1r,4S)-4-methylcyclohexyl)-2-oxoethyl)-1-ethyl-1H-pyrazole-5-carboxamide], the IC50 was 20 nM.

`Cc1n[nH]c(C)c1-c1ccc(NC(=O)[C@@H](NC(=O)c2ccnn2C)[C@H]2CC[C@H](C)CC2)cc1` [Example 84, N—((S)-2-((4-(3,5-Dimethyl-1H-pyrazol-4-yl)phenyl)amino)-1-((1r,4S)-4-methylcyclohexyl)-2-oxoethyl)-1-methyl-1H-pyrazole-5-carboxamide]: the IC50 was 31.6 nM. Consider `Cc1cc(-c2ccc(NC(=O)[C@@H](NC(=O)c3ccnn3C)C(c3ccccc3)c3ccccc3)cc2)c(C)cn1` [Example 38, (S)—N-(1-((4-(2,5-dimethylpyridin-4-yl)phenyl)amino)-1-oxo-3,3-diphenylpropan-2-yl)-1-methyl-1H-pyrazole-5-carboxamide], for which the IC50 is 100 nM.

Consider `Cc1cc(NC(=O)[C@@H](NC(=O)c2ccnn2C)C(c2ccccc2)c2ccccc2)ccc1-c1ccncc1` [Example 45, (S)-1-methyl-N-(1-((3-methyl-4-(pyridin-4-yl)phenyl)amino)-1-oxo-3,3-diphenylpropan-2-yl)-1H-pyrazole-5-carboxamide], for which the IC50 is 100 nM.

For the compound `Cn1nccc1C(=O)N[C@H](C(=O)Nc1ccc(-c2c[nH]c(=O)c3[nH]ccc23)c(F)c1)C(c1ccccc1)c1ccccc1` [Example 68, (S)—N-(1-((3-fluoro-4-(7-oxo-6,7-dihydro-1H-pyrrolo[2,3-c]pyridin-4-yl)phenyl)amino)-1-oxo-3,3-diphenylpropan-2-yl)-1-methyl-1H-pyrazole-5-carboxamide], the IC50 is 7.94 nM. With `Cn1nccc1C(=O)N[C@H](C(=O)Nc1ccc(-c2ccc(=O)n(C)c2)cc1)C(c1ccccc1)c1ccccc1` [Example 51, (S)-1-methyl-N-(1-((4-(1-methyl-6-oxo-1,6-dihydropyridin-3-yl)phenyl)amino)-1-oxo-3,3-diphenylpropan-2-yl)-1H-pyrazole-5-carboxamide], the IC50 was 25.1 nM.

On to `Cc1n[nH]cc1-c1ccc(NC(=O)[C@@H](NC(=O)c2ccnn2C)C(c2ccccc2)c2ccccc2)cc1F` [Example 65, (S)—N-(1-((3-fluoro-4-(3-methyl-1H-pyrazol-4-yl)phenyl)amino)-1-oxo-3,3-diphenylpropan-2-yl)-1-methyl-1H-pyrazole-5-carboxamide], for which the IC50 is 50.1 nM. `COc1ncc(-c2ccc(NC(=O)[C@@H](NC(=O)c3ccnn3C)C(c3ccccc3)c3ccccc3)cc2)c2cc[nH]c12` [Example 76, (S)—N-(1-((4-(7-methoxy-1H-pyrrolo[2,3-c]pyridin-4-yl)phenyl)amino)-1-oxo-3,3-diphenylpropan-2-yl)-1-methyl-1H-pyrazole-5-carboxamide]: the IC50 was 631 nM.

With `Cc1cncc(C)c1-c1ccc(NC(=O)[C@@H](NC(=O)c2ccnn2C)C(c2ccccc2)c2ccccc2)cc1` [Example 6, (S)—N-(1-((4-(3,5-dimethylpyridin-4-yl)phenyl)amino)-1-oxo-3,3-diphenylpropan-2-yl)-1-methyl-1H-pyrazole-5-carboxamide], the IC50 is 12.6 nM.
